Consider three molecules from patent publication US9011826B2, “Cosmetic and dermatological formulations including isononyl benzoate” (Evonik Degussa GmbH, priority 2007, dated 2015).

The nature of series [1]: Dissolving power for crystalline UV light protection filters. It is filed as physicochemical. Conditions: 22° C., percent by weight; for Dissolving power (maximum dissolved amount of UV filter) BP-3: Benzophenone-3 dissolved in the product; for Dissolving power (maximum dissolved amount of UV filter) BEMT: Bis-ethylhexyloxyphenol Methoxyphenyl Triazine dissolved in the product; for Dissolving power (maximum dissolved amount of UV filter) BMDM: Butyl Methoxydibenzoylmethane dissolved in the product; for Dissolving power (maximum dissolved amount of UV filter) EHT: Octyl Triazone dissolved in the product. The text has this:
Four representative UV-A or UV-B light protection filters were chosen as representatives for testing the dissolving power for crystalline UV light protection filters in isononyl benzoate (Vestinol® INB, Evonik Oxeno GmbH). These were Benzophenone-3 (2-hydroxy-4-methoxy-benzophenone, BP-3), Butyl Methoxydibenzoylmethane (BMDM), Octyl Triazone (2,4,6-trianilino-p-(carbo-2′-ethylhexyl-1′-oxy)-1,3,5-triazine, EHT) and bemotrizinol (Bis-ethylhexyloxyphenol Methoxyphenyl Triazine, BEMT).
For determination of the dissolving power for these […] UV light protection filters, in each case a particular amount (50 g) of one of the compounds according to the invention was initially introduced into the dissolving vessel and temperature-controlled at 22° C. 1 percent by weight of a UV light protection filter was then added and the mixture was stirred until this amount had dissolved completely and homogeneously. This operation was repeated until the maximum amount of the UV light protection filter which can be dissolved had been exceeded. For complete dissolving, a relatively long stirring time of several hours was often necessary at higher concentrations.
Once the maximum concentration had been roughly determined in this manner, the test was repeated with smaller weights of the UV light protection filter for fine determination of the concentration range around this maximum concentration.
The compound Tegosoft® TN (C12-15 Alkyl Benzoate) was used as a reference.

The conditions of series [2]: known solvents (lipids) for this UV-B filter; cited from earlier work.

On to `CC(C)CCCCCCOC(=O)c1ccccc1` [Isononyl Benzoate, isononyl benzoate], for which, in series [1], the “Dissolving power (maximum dissolved amount of UV filter) BP-3” value worked out at 21%, the “Dissolving power (maximum dissolved amount of UV filter) BEMT” value is given as 12%, the “Dissolving power (maximum dissolved amount of UV filter) BMDM” value turned out to be 14% and the “Dissolving power (maximum dissolved amount of UV filter) EHT” value amounted to 6%.
Consider “C12-15 Alkyl Benzoate [Tegosoft ® TN, reference compound]”, for which, in series [1], the “Dissolving power (maximum dissolved amount of UV filter) BP-3” value amounted to 15%, the “Dissolving power (maximum dissolved amount of UV filter) BEMT” value was 9%, the “Dissolving power (maximum dissolved amount of UV filter) BMDM” value is reported as 13% and the “Dissolving power (maximum dissolved amount of UV filter) EHT” value was 4%.
Consider `CCCCC(CC)COC(=O)c1ccc(Nc2nc(Nc3ccc(C(=O)OCC(CC)CCCC)cc3)nc(Nc3ccc(C(=O)OCC(CC)CCCC)cc3)n2)cc1` (stereo not drawn) [UVINUL™ T 150, 4,4′,4″-(1,3,5-Triazine-2,4,6-triyltriimino)-tris-benzoic acid tris(2-ethylhexyl ester)], for which the “Maximum amount of the filter dissolved by known solvents” value in series [2] was “approx. 15 wt. %”.
